The nature of data set [1]: Phototoxicity assay in MET1 cells (irradiation 2.5 J/cm², resazurin). It counts as cell-based, human. As to conditions: human, MET1 squamous cell carcinoma cells; MET1 cells, 457 nm, all investigated concentrations (1.25-40 µM); read-out: cell viability under 457 nm light. As to the method: (§1) The […] SCC cell line (human squamous cell carcinoma) was obtained from Ximbio (London, UK), HaCaT (immortalized human keratinocytes cell line) was obtained from Addexbio (San Diego, CA, USA) and WM983b (human metastatic melanoma cell line) was obtained from Rockland (Pottstown, PA, USA). […] Cells were cultivated in an incubator (Sanyo MCO-19AIC-UV) at 37 °C in a 5% CO2 humidified atmosphere. […] The plates were incubated for 24 h, followed by washing with PBS supplemented with calcium and magnesium. Afterwards, complete culture medium without phenol red was added, and the plates were irradiated from above and submitted to a dose of 2.5 J/cm2 of irradiation emitted by different wavelength light sources coupled with a homemade irradiation system created in our laboratory. […] This experiment was performed in an incubator that was able to keep plates in a dark environment; therefore, the dark control plates were protected from any light source, as well as the others, with the exception of the irradiation that each one was submitted to. Plates were incubated for another 24 h, and finally, the resazurin assay was performed as previously described in Section 3.3. For the phototoxicity study using WM983b cells, plates were prepared at a cell density of 40,000 cells/cm2, and cells were treated with MB and AO only.

In data set [2] the test system is MET1 cells. The description is as above. The note with it: Homo sapiens, MET-1, light or radiation study, MET1 cells, treated 24 h. It counts as cell-based, human. On the procedure:
as §1

The structures appear in SMILES notation. pIC50: −log10 of the molar value. Where two headings read alike, the source gives them in different places.

Data on one molecule can be found in article PMC10054552, “Phototoxic Potential of Different DNA Intercalators for Skin Cancer Therapy: In Vitro Screening” (International Journal of Molecular Sciences, 2023).

Regarding `CN(C)c1ccc2cc3ccc(N(C)C)cc3nc2c1` [Acridine orange, acridine orange], the viability (usually a per cent measure of how many cells are alive, often set against a control) at 24 h in data set [1] was less than 10%. Further, the pIC50 (as a rule, −log10 of the IC50, conventionally taken in molar units) was 5.15 in data set [2] (254 nm light, 2.5 J/cm², read-out: IC50 254 nm); 6.40 in data set [2] (457 nm light, 2.5 J/cm², read-out: IC50 457 nm); 5.39 in data set [2] (583 nm light, 2.5 J/cm², read-out: IC50 583 nm); 5.18 in data set [2] (640 nm light, 2.5 J/cm², read-out: IC50 640 nm); 4.94 in data set [2] (dark control (no irradiation), read-out: IC50 Dark).
